The source of these data is US20240358862A1, “Synthesis Method and Application of a Near-infrared Probe GGa-ICG specific binding to PSCA” (Guangzhou Shiyun Biotechnology Co., Ltd, priority 2022, published 2024).

The nature of series [1]: Fluorescence stability detection. It is filed as physicochemical. The protocol: Stability testing was divided into two groups: 1) stability testing under excitation wavelength and 2) stability testing of GGa-ICG under visible light. Excitation wavelength of 780 nm (GGa-ICG, ssDNA-ICG, and ICG) and visible light were used to excite the fluorescence probe GGa-ICG. Fluorescence detection was performed, and the changes in fluorescence intensity were recorded using a fluorescence spectrophotometer.

Series [2] relates to RWPE-1, MCF2, Hela cells. Put plainly: Cell binding by fluorescence microscope / flow cytometry, non-tumour prostate and other cells. It is filed as cell-based, human. The conditions noted are these: 200 nM probe. As to the method:
Therefore, 200 nM of GGa-ICG and ssDNA-ICG were used to confirm their specific binding. The method is as follows: • a. The human prostate cancer cell lines PC-3, DU145, LNCaP, 22RV1, immortalized normal human prostate epithelial cell line RWPE1, and human cervical cancer cell line Hela, as well as MCF7 cells obtained from the American Type Culture Collection (ATCC), were used in this study. All cell lines were cultured at 37° C. and 5% CO2 in a humidified environment. […]
After the cells reach a confluency of over 80%, they were passaged and grown for 24-48 hours until they reached a confluency of over 50%. They were then washed once with PBS (without Ca and Mg ions), twice with cold washing buffer, and incubated at room temperature (4° C. for the internalization inhibition group) for 30 minutes with the sample buffer containing near-infrared fluorescence probes GGa-ICG, ssDNA-ICG, and ICG to a final concentration of 200 nM (or as specified). The cells were observed under a fluorescence microscope or analyzed by flow cytometry after digestion with trypsin without EDTA. […]

Series [3] relates to PC tissues. Kind of series: GGa-ICG staining of PC clinical tissue sections (confocal fluorescence microscopy). Particulars: 200 nM, paraffin sections. The protocol: Methods: Paraffin tissue blocks were provided by the Pathology Department of the Third Affiliated Hospital of Sun Yat-sen University (Guangzhou, China). Tissue sections were deparaffinized twice in xylene for 10 min each time, followed by rehydration in a series of graded ethanol (100%, 95%, and 70%) and rinsed in deionized water. After washing in PBS for 5 min, the sections were incubated in TE buffer (10 mM Tris, 1 mM EDTA, pH=8.0, per liter of ddH2O) and boiled in a microwave oven until boiling, then kept at 95° C. for 15 min to retrieve the antigen. The sections were allowed to cool naturally to room temperature and then washed three times with fresh PBS. After histological processing, tissue sections were incubated with binding buffer containing 20% FBS and 0.1 mg/mL Herring Sperm DNA at room temperature for 60 min, followed by incubation with 200 nM GGa-ICG in the binding buffer at 4° C. for 60 min. The sections were washed three times with fresh PBS, dehydrated, and sealed with Antifade PVA mounting medium. Finally, stained sections were imaged using a spinning disk confocal fluorescence microscope (Olympus IX71, Japan). Adjacent sections were stained with […] HE staining. Fluorescence signals were observed using a 40× objective lens (NA 0.90, UPLSAPO, Olympus, Japan). Images were analyzed using FV10-ASW 3.1 software.

For series [4], the target named is T1, PSCA on PC-3 cells (Homo sapiens, UniProt O43653).
T1 construct: Membrane proteins of PC-3 cells were extracted; endogenous in cells; host or cells: PC-3
T1 sequence (O43653 12-83): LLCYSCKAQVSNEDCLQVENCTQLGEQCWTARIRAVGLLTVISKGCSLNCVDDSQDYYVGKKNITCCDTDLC
Kind of series: Antibody competition experiment by flow cytometry. It is filed as cell-based. Particulars: 200 nM GGa-ICG, 10 μg/mL anti-PSCA-FITC. As to the method: A suspension of 5×10^5 cells of PC-3 or other cell lines was incubated with 200 nM of GGa-ICG or anti-PSCA-FITC antibody in 100 μL of binding buffer on ice for 30 minutes, washed again, and subjected to flow cytometry analysis (FACS Calibur instrument, BD Biosciences): 10,000 events were collected for each sample. ICG-labeled ssDNA-ICG was used as a negative control. For the antibody competition experiment, 5×10^5 cells were incubated with 200 nM of GGa-ICG in binding buffer on ice for 30 minutes, followed by the addition of 10 μg/mL of anti-PSCA-FITC antibody and further incubation for 30 minutes as the GGa-ICG blocking group. 10 μg/mL of anti-PSCA-FITC was incubated in binding buffer on ice for […], followed by the addition of 200 nM of GGa-ICG and further incubation for 30 minutes as the anti-PSCA-FITC blocking group. Both 200 nM of GGa-ICG and 10 μg/mL of anti-PSCA-FITC antibody were incubated on ice for 30 minutes as the combined group. After washing, the cells were resuspended and subjected to flow cytometry analysis.
To confirm the results of the mass spectrometry, the location of GGa-ICG and PSCA on PC-3 cells was first examined. To achieve this, PC-3 cells were incubated with […].

Series [5] relates to subcutaneous transplantation tumor models. Put plainly: In vivo visualization in subcutaneous transplantation tumor models of other cancers. An excerpt:
PSCA is expressed at high levels in various tumors such as prostate cancer, bladder cancer, kidney cancer, breast cancer, colon cancer, lung cancer, pancreatic cancer, etc. Using the aforementioned method, T24 bladder cancer cells, Cakil renal cancer cells, MDA-MB468 breast cancer cells, HT29 colon cancer cells, PANC1 pancreatic cancer cells, NCI-H460 lung cancer cells, and other cell lines were stained with GGa-ICG for flow cytometry analysis. Positive cell lines were used to establish subcutaneous transplantation tumor models to detect the visualization of GGa-ICG in vivo.

Regarding “GGa-ICG: near-infrared probe: PSCA-binding nucleic acid aptamer GGa linked at 3′ to an ICG derivative dye (DNA TGCCACTACAGCTGGTTCGGTTTGGTGACTTCGTTCTTCGTTGTGGT; 3'-ICG dye, further chemistry not given here)”, the “time after which fluorescence was extinguished” value in series [1] (after excitation at 780 nm) came to 1 h. The “fluorescence quenching under visible light excitation” value in series [1] (visible light, during the detection time) is on record as “did not exhibit fluorescence quenching”. The “binding affinity to RWPE-1, MCF2, Hela cells” value in series [2] is listed as “significantly reduced binding affinity”. For the same substance, in series [3], the “binding rate with PC tissues” value is listed as 82.5%; the “fluorescence signal in PC and metastatic tissues” value is recorded as “Strong fluorescence signals”; the “fluorescence signal in normal tissues” value is on record as “No fluorescence signal”. In series [4], the “relationship with PSCA antibody in flow cytometry” value is reported as “competitive relationship”. The “in vivo binding in multiple cancer types” value in series [5] is listed as “consistent with PSCA expression”.
